Activity calls are given as the source filed them. The rule behind the calls is not given here.

What all share (type): functional
The nature of assay [1]: Antioxidant activity assessed as galvinoxyl radical scavenging activity at 15 uM.
A short description of assay [2]: Antioxidant activity assessed as inhibition of hydroxyl radical-induced oxidation of DNA at 0.2 mM after 30 mins by TBARS assay relative to control.
Assay [3] is described as follows: Antioxidant activity assessed as ABTS radical scavenging activity at 5 uM.
Assay [4] is described as follows: Antioxidant activity assessed as time required to inhibit AAPH-induced oxidation of DNA by TBARS assay.
Assay [5] relates to Radical scavenging activity. Put plainly: Antioxidant activity assessed as DPPH radical scavenging activity at 10 uM.
A short description of assay [6]: Antioxidant activity assessed as inhibition of Cu2+/GSH-induced oxidation of DNA at 0.2 mM measured every 30 mins by TBARS assay.
Assay [7] in a line: Antioxidant activity assessed as inhibition of AAPH-induced oxidation of DNA at 1 to 400 uM measured every 2 hrs by TBARS assay.

Turning to `O=c1oc2ccccc2cc1C1=NN(c2ccccc2)C(c2ccccc2O)C1` (stereo not drawn), the K in assay [1] was found to be 4350 M⁻¹ s⁻¹; in assay [3], 7440 M⁻¹ s⁻¹; in assay [5], 540 M⁻¹ s⁻¹. Moreover, the inhibition in assay [2] was 44.2%. Also, in assay [4], the TIME is 0.0192 h.

For the molecule `O=c1oc2ccccc2cc1C1=NN(c2ccccc2)C(c2cccc(O)c2)C1` (stereo not drawn), the K in assay [1] came to 7230 M⁻¹ s⁻¹; in assay [3] it was 4310 M⁻¹ s⁻¹; in assay [5], 700 M⁻¹ s⁻¹. Besides, in assay [2], the inhibition turned out to be 66.4%. Besides, in assay [4], the TIME worked out at 0.016 h.

Take `COc1ccc(C2CC(c3cc4ccccc4oc3=O)=NN2c2ccccc2)cc1` (stereo not drawn): the inhibition in assay [2] is 75.3%. Moreover, the inhibition entry in assay [6] is “Active”. In assay [7], the inhibition entry was “inactive”.

Take `O=c1oc2ccccc2cc1C1=NN(c2ccccc2)C(c2ccccc2)C1` (stereo not drawn): the inhibition in assay [2] is 67.8%. The inhibition result in assay [6] was “Active”. Also, in assay [7], the inhibition entry was “inactive”.

Consider `COc1cc(C2CC(c3cc4ccccc4oc3=O)=NN2c2ccccc2)ccc1O` (stereo not drawn), for which the K was determined as 6740 M⁻¹ s⁻¹ in assay [1], 5990 M⁻¹ s⁻¹ in assay [3] and 2540 M⁻¹ s⁻¹ in assay [5]. Moreover, the inhibition in assay [2] turned out to be 53.9%. Also, the TIME in assay [4] came to 0.0313 h.

Take `O=c1oc2ccccc2cc1C1=NN(c2ccccc2)C(c2ccc(O)cc2)C1` (stereo not drawn): the values for the K in assay [1], in assay [3] and in assay [5] were 5820 M⁻¹ s⁻¹, 11200 M⁻¹ s⁻¹ and 2440 M⁻¹ s⁻¹, respectively. In assay [2], the inhibition is 81.1%. The TIME in assay [4] came to 0.0173 h.

`O=c1oc2ccccc2cc1C1=NN(c2ccccc2)C(c2ccc(O)cc2O)C1` (stereo not drawn): the K was 7900 M⁻¹ s⁻¹ in assay [1], 24600 M⁻¹ s⁻¹ in assay [3] and 3720 M⁻¹ s⁻¹ in assay [5]. Further, the inhibition in assay [2] came out at 35.5%. Further, the TIME in assay [4] is 0.0343 h. For the same molecule, in assay [6], the inhibition entry was “Active”.

`O=c1oc2ccccc2cc1C1=NN(c2ccccc2)C(c2ccc(O)c(O)c2)C1` (stereo not drawn): the K in assay [1] is 6920 M⁻¹ s⁻¹; in assay [3], 12900 M⁻¹ s⁻¹; in assay [5] it was 8830 M⁻¹ s⁻¹. In assay [2], the inhibition was determined as 43.4%. Further, the TIME in assay [4] came to 0.0327 h. In addition, the inhibition entry in assay [6] is “Active”.
